Results taken from the supplement of paper PMC10627819.

Columns and labels:
S. pneumoniae D39V [1] = assay: fitness (endpoint OD595 vs no drug) (fraction); higher = more growth
How it was run: (§1)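 Plates with 384 wells were inoculated at OD595 0.01 using 30 µl of TSB, LB Lennox or CY, or 55 µl for S. pneumoniae. Incubation was at 37 °C, with OD595 measured every 30 min for 14 h. Fitness is the stationary-phase transition optical density over the robust mean of no-drug control wells, after first-reading background subtraction; it is capped at 1.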

S. aureus Newman [2] = assay: as above
How it was run: as §1

S. aureus DSM 20231 [3] = assay: as above
How it was run: as §1

S. pneumoniae D39V [4] = assay: Bliss interaction score (quartile over a dose matrix) (fitness difference); higher = more antagonism (negative = synergy)
How it was run: (§2)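 Values were capped at 1 after dividing OD595 at stationary-phase entry by the plate's robust no-drug mean. This ratio is fitness, and single-drug fitness was inferred from the combination data. The Bliss score is observed minus product-expected fitness, given as quartiles over technical, biological and donor/recipient replicates.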

B. subtilis 168 = assay: as above
How it was run: as §2

S. aureus Newman [5] = assay: as above
How it was run: as §2

S. aureus DSM 20231 [6] = assay: as above
How it was run: as §2
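Wherever Bliss interaction score (quartile over a dose matrix) is given: first quartile when negative (synergy) and third quartile when positive (antagonism).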

CO/N=C(\C(=O)N[C@@H]1C(=O)N2C(C(=O)[O-])=C(C[N+]3(C)CCCC3)CS[C@H]12)c1csc(N)n1 [Cefepime] + Cc1onc(-c2ccccc2)c1C(=O)N[C@@H]1C(=O)N2[C@@H]1SC(C)(C)[C@@H]2C(=O)O [Oxacillin]
Conditions | fitness
S. aureus DSM 20231 [3], first compound 0.125 µg/mL, partner 0.0156 µg/mL | 0.75
S. aureus DSM 20231 [3], first compound 0.125 µg/mL, partner 0.0312 µg/mL | 0.641
S. aureus DSM 20231 [3], first compound 0.125 µg/mL, partner 0.0625 µg/mL | 0.507
S. aureus DSM 20231 [3], first compound 0.25 µg/mL, partner 0.0156 µg/mL | 0.826
S. aureus DSM 20231 [3], first compound 0.25 µg/mL, partner 0.0312 µg/mL | 0.634
S. aureus DSM 20231 [3], first compound 0.25 µg/mL, partner 0.0625 µg/mL | 0.578
S. aureus DSM 20231 [3], first compound 0.5 µg/mL, partner 0.0156 µg/mL | 0.624
S. aureus DSM 20231 [3], first compound 0.5 µg/mL, partner 0.0312 µg/mL | 0.565
S. aureus DSM 20231 [3], first compound 0.5 µg/mL, partner 0.0625 µg/mL | 0.53
S. aureus Newman [2], first compound 0.125 µg/mL, partner 0.0156 µg/mL | 0.828
S. aureus Newman [2], first compound 0.125 µg/mL, partner 0.0312 µg/mL | 0.796
S. aureus Newman [2], first compound 0.125 µg/mL, partner 0.0625 µg/mL | 0.71
S. aureus Newman [2], first compound 0.25 µg/mL, partner 0.0156 µg/mL | 0.804
S. aureus Newman [2], first compound 0.25 µg/mL, partner 0.0312 µg/mL | 0.753
S. aureus Newman [2], first compound 0.25 µg/mL, partner 0.0625 µg/mL | 0.682
S. aureus Newman [2], first compound 0.5 µg/mL, partner 0.0156 µg/mL | 0.768
S. aureus Newman [2], first compound 0.5 µg/mL, partner 0.0312 µg/mL | 0.684
S. aureus Newman [2], first compound 0.5 µg/mL, partner 0.0625 µg/mL | 0.667
S. pneumoniae D39V [1], first compound 0.007 µg/mL, partner 0.005 µg/mL | 0.997
S. pneumoniae D39V [1], first compound 0.007 µg/mL, partner 0.01 µg/mL | ≥ 1
S. pneumoniae D39V [1], first compound 0.007 µg/mL, partner 0.02 µg/mL | 0.986
S. pneumoniae D39V [1], first compound 0.0078 µg/mL, partner 0.01 µg/mL | 0.95
S. pneumoniae D39V [1], first compound 0.0078 µg/mL, partner 0.02 µg/mL | 0.825
S. pneumoniae D39V [1], first compound 0.0078 µg/mL, partner 0.04 µg/mL | 0.254
S. pneumoniae D39V [1], first compound 0.014 µg/mL, partner 0.005 µg/mL | ≥ 1
S. pneumoniae D39V [1], first compound 0.014 µg/mL, partner 0.01 µg/mL | ≥ 1
S. pneumoniae D39V [1], first compound 0.014 µg/mL, partner 0.02 µg/mL | 1
S. pneumoniae D39V [1], first compound 0.0155 µg/mL, partner 0.01 µg/mL | 0.86
S. pneumoniae D39V [1], first compound 0.0155 µg/mL, partner 0.04 µg/mL | 0.153
S. pneumoniae D39V [1], first compound 0.028 µg/mL, partner 0.005 µg/mL | 0.955
S. pneumoniae D39V [1], first compound 0.028 µg/mL, partner 0.01 µg/mL | 0.942
S. pneumoniae D39V [1], first compound 0.028 µg/mL, partner 0.02 µg/mL | 0.847
S. pneumoniae D39V [1], first compound 0.031 µg/mL, partner 0.04 µg/mL | 0.0453

Conditions | Bliss interaction score
B. subtilis 168 | -0.0609
S. aureus DSM 20231 [6] | -0.054
S. aureus Newman [5] | 0.11
S. pneumoniae D39V [4] | -0.138

CO/N=C(\C(=O)N[C@@H]1C(=O)N2C(C(=O)[O-])=C(C[N+]3(C)CCCC3)CS[C@H]12)c1csc(N)n1 [Cefepime] + Cn1nnc(-c2ccc(-c3ccc(N4C[C@H](CO)OC4=O)cc3F)cn2)n1 [Tedizolid]
fitness
Conditions | partner 0.03125 µg/mL | partner 0.0625 µg/mL | partner 0.125 µg/mL | partner 0.25 µg/mL | partner 0.5 µg/mL
S. aureus DSM 20231 [3], first compound 0.125 µg/mL | – | 0.879 | 0.804 | 0.692 | –
S. aureus DSM 20231 [3], first compound 0.25 µg/mL | – | 0.796 | 0.738 | 0.601 | –
S. aureus DSM 20231 [3], first compound 0.5 µg/mL | – | 0.844 | 0.797 | 0.69 | –
S. aureus Newman [2], first compound 0.125 µg/mL | – | 0.858 | 0.837 | – | –
S. aureus Newman [2], first compound 0.25 µg/mL | – | 0.81 | 0.773 | – | –
S. aureus Newman [2], first compound 0.5 µg/mL | – | 0.728 | 0.717 | – | –
S. pneumoniae D39V [1], first compound 0.007 µg/mL | – | – | 0.953 | 0.642 | 0.129
S. pneumoniae D39V [1], first compound 0.0078 µg/mL | 0.986 | 0.983 | 0.879 | – | –
S. pneumoniae D39V [1], first compound 0.014 µg/mL | – | – | 0.95 | 0.626 | 0.149
S. pneumoniae D39V [1], first compound 0.0155 µg/mL | 0.969 | 0.974 | 0.895 | – | –
S. pneumoniae D39V [1], first compound 0.028 µg/mL | – | – | 0.937 | 0.652 | 0.105
S. pneumoniae D39V [1], first compound 0.031 µg/mL | 0.971 | 0.948 | 0.888 | – | –

Conditions | Bliss interaction score
B. subtilis 168 | 0.12
S. aureus DSM 20231 [6] | 0.122
S. aureus Newman [5] | -0.0634
S. pneumoniae D39V [4] | 0.237
